Columns and labels:
[1] = tested on: PC-3; assay: NCI 60 five-dose screening, PC-3
Description: (§1) The National Cancer Institute's Developmental Therapeutic preclinical 60 human cancer cell lines were used for an in vitro screen. […] The one-dose and five-dose experiments were conducted according to standard NCI protocols.
(§2) The human tumor cell lines of the cancer screening panel are grown in RPMI 1640 medium containing 5% fetal bovine serum and 2 mM L-glutamine. For a typical screening experiment, cells are inoculated into 96 well microtiter plates in 100 μL at plating densities ranging from 5,000 to 40,000 cells/well depending on the doubling time of individual cell lines. After cell inoculation, the microtiter plates are incubated at 37° C., 5% CO2, 95% air and 100% relative humidity for 24 h prior to addition of experimental drugs.
(§3) After 24 h, two plates of each cell line are fixed in situ with TCA, to represent a measurement of the cell population for each cell line at the time of drug addition (Tz). […]
(§4) Following drug addition, the plates are incubated for an additional 48 h at 37° C., 5% CO2, 95% air, and 100% relative humidity. […] Bound stain is subsequently solubilized with 10 mM trizma base, and the absorbance is read on an automated plate reader at a wavelength of 515 nm. […] Using the seven absorbance measurements [time zero, (Tz), control growth, (C), and test growth in the presence of drug at the five concentration levels (Ti)], the percentage growth is calculated at each of the drug concentrations levels. Percentage growth inhibition is calculated as: [(Ti−Tz)/(C−Tz)]×100 for concentrations for which Ti>/=Tz [(Ti−Tz)/Tz]×100 for concentrations for which Ti<Tz.
(§5) Three dose response parameters are calculated for each experimental agent. […] The drug concentration resulting in total growth inhibition (TGI) is calculated from Ti=Tz. […] Values are calculated for each of these three parameters if the level of activity is reached; however, if the effect is not reached or is exceeded, the value for that parameter is expressed as greater or less than the maximum or minimum concentration tested.

[2] = tested on: MOLT-4; assay: NCI 60 five-dose screening, MOLT-4
Description: as §1, §2, §3, §4, §5

[3] = tested on: K-562; assay: NCI 60 five-dose screening, K-562; settings: Homo sapiens, K562, 48 h
Description: as §1
(§6) The human tumor cell lines of the cancer screening panel are grown in RPMI 1640 medium containing 5% fetal bovine serum and 2 mM L-glutamine. For a typical screening experiment, cells are inoculated into 96 well microtiter plates in 100 μL at plating densities ranging from 5,000 to 40,000 cells/well depending on the doubling time of individual cell lines. […]
as §4
(§7) Three dose response parameters are calculated for each experimental agent. […]

[4] = tested on: HCC-2998; assay: NCI 60 five-dose screening, HCC-2998
Description: as §1, §2, §3, §4, §5

[5] = tested on: HT29; assay: NCI 60 five-dose screening, HT29
Description: as §1, §2, §3, §4, §5

[6] = target: T1, PMCT (Homo sapiens, UniProt Q86YT5); assay: PMCT inhibition, citrate transport assay of whole HEK293T cells; assay type: cell-based
T1 construct: expressed in transfected cells; host or cells: HEK293T cells transfected with pcDNA3.1(+)-SLC13A5 using PEI
T1 sequence (Q86YT5 whole entry): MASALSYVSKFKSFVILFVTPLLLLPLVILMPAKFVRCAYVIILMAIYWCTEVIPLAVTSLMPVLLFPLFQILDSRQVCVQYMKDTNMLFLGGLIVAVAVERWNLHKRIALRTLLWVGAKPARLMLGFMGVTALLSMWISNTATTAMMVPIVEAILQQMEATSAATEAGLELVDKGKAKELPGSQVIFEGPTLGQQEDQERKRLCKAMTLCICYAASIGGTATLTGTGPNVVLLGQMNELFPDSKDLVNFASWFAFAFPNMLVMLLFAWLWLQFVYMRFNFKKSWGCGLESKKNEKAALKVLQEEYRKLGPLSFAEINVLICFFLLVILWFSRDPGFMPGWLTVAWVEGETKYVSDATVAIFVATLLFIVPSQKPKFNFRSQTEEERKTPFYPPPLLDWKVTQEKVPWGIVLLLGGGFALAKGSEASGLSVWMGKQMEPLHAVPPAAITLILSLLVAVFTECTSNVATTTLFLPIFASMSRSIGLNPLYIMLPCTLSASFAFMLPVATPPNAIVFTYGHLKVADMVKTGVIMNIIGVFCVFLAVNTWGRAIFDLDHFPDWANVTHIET

[7] = tested on: DU-145; assay: NCI 60 five-dose screening, DU-145
Description: as §1, §2, §3, §4, §5

[8] = tested on: HOP-92; assay: NCI 60 five-dose screening, HOP-92
Description: (§8) The one-dose and five-dose experiments were conducted according to standard NCI protocols.
as §2
(§9) After 24 h, two plates of each cell line are fixed in situ with TCA, to represent a measurement of the cell population for each cell line at the time of drug addition (Tz). Experimental drugs are solubilized in dimethyl sulfoxide at 400-fold the desired final maximum test concentration and stored frozen prior to use. […]
as §4, §5

[9] = tested on: T-47D; assay: NCI 60 five-dose screening, T-47D; settings: 48 h
Description: as §1, §2, §3, §4, §5

[10] = tested on: SW-620; assay: NCI 60 five-dose screening, SW-620
Description: as §1, §2, §3, §4, §5

[11] = tested on: KM12; assay: NCI 60 five-dose screening, KM12
Description: as §1, §2, §3, §4, §5

[12] = tested on: OVCAR-8; assay: NCI 60 five-dose screening, OVCAR-8
Description: as §8, §2, §9, §4, §5

[13] = tested on: NCI-H226; assay: NCI 60 five-dose screening, NCI-H226
Description: as §8, §2, §9, §4, §5

[14] = tested on: 60 human cancer cell lines; assay: NCI 60 One-Dose Screen; assay type: cell-based
Description: The one-dose assay reported the growth relative to the no-drug control, and relative to the time zero number of cells. This allowed for the detection of both growth inhibition (values between 0 and 100) and lethality (values less than 0). For example, a value of 100 means no growth inhibition. A value of 40 would mean 60% growth inhibition. A value of 0 means no net growth over the course of the experiment. A value of −40 would mean 40% lethality. A value of −100 means all cells are dead.

[15] = tested on: NCI-H460; assay: NCI 60 five-dose screening, NCI-H460
Description: as §1, §2, §3, §4, §5

[16] = tested on: OVCAR-5; assay: NCI 60 five-dose screening, OVCAR-5
Description: as §1, §2, §3, §4, §5

[17] = tested on: SF-295; assay: NCI 60 five-dose screening, SF-295
Description: as §1, §2, §3, §4, §5

[18] = tested on: EKVX; assay: NCI 60 five-dose screening, EKVX; settings: 48 h
Description: as §1, §2, §3, §4, §5

[19] = tested on: OVCAR-4; assay: NCI 60 five-dose screening, OVCAR-4
Description: as §1, §2, §3, §4, §5

[20] = tested on: CCRF-CEM; assay: NCI 60 five-dose screening, CCRF-CEM; settings: Homo sapiens, 48 h
Description: as §1, §6, §4, §7

[21] = tested on: NCI-H23; assay: NCI 60 five-dose screening, NCI-H23
Description: as §8, §2, §9, §4, §5

[22] = tested on: HCT-15; assay: NCI 60 five-dose screening, HCT-15
Description: as §1, §2, §3, §4, §5

[23] = tested on: 60 human cancer cell lines; assay: NCI 60 cell line assay, panel summary; assay type: cell-based; settings: for GI50: Homo sapiens, 60 cell

`COc1ccc(SC2c3cc(OC)c(OC)cc3Oc3nc(N)c(C#N)c(N)c32)cc1` (stereo not drawn) [Compound 1, 2,4-diamino-7,8-dimethoxy-5-((4-methoxyphenyl)thio)-5H-chromeno[2,3-b]pyridine-3-carbonitrile] gave a GI50 ([1]; Homo sapiens, PC-3, 48 h) of 1.16 µM, a CC50 ([1]; Homo sapiens, PC-3, 48 h, read-out: LC50) of 5.37 µM and a TGI ([1]; PC-3 (Prostate Cancer), five-dose, 48 h) of 2.49 µM. The GI50 ([2]; Homo sapiens, MOLT-4, 48 h) was 0.31 µM, the CC50 ([2]; Homo sapiens, MOLT-4, 48 h, read-out: LC50) was > 100 µM and the TGI ([2]; MOLT-4 (Leukemia), five-dose, 48 h) was 1.60 µM. For the same molecule, the GI50 [3] was 0.44 µM, the CC50 ([3]; read-out: LC50) was > 100 µM and the TGI ([4]; HCC-2998 (Colon Cancer), five-dose, 48 h) was 3.12 µM. For the same molecule, the GI50 ([4]; Homo sapiens, HCC 2998, 48 h) was 1.72 µM, the CC50 ([4]; Homo sapiens, HCC 2998, 48 h, read-out: LC50) was 5.67 µM and the TGI ([5]; HT29 (Colon Cancer), five-dose, 48 h) was 5.04 µM. The GI50 ([5]; Homo sapiens, HT-29, 48 h) was 2.16 µM, the CC50 ([5]; Homo sapiens, HT-29, 48 h, read-out: LC50) was > 100 µM and the IC50 ([6]; HEK293T cells) was 9.8 µM. The “dose-dependence of PMCT inhibition” value ([6]; HEK293T cells, even at moderate concentrations (FIG. 1)) was “dose-dependent inhibition”, the inhibition at 5 µM ([6]; HEK-293T, read-out: PMCT Inhibition, Inhibitor Concentration 5 μM, HEK293T cells) was 50.1% and the inhibition at 20 µM ([6]; HEK-293T, read-out: PMCT Inhibition, Inhibitor Concentration 20 μM, HEK293T cells) was 75.6%. The inhibition at 40 µM ([6]; HEK-293T, read-out: PMCT Inhibition, Inhibitor Concentration 40 μM, HEK293T cells) was 50.2%, the inhibition at 200 µM ([6]; HEK-293T, read-out: PMCT Inhibition, Inhibitor Concentration 200 μM, HEK293T cells) was 32.1% and the inhibition at 1000 µM ([6]; HEK-293T, read-out: PMCT Inhibition, Inhibitor Concentration 1000 μM, HEK293T cells) was 62.8%. For the same molecule, the TGI ([7]; DU-145 (Prostate Cancer), five-dose, 48 h) was 3.11 µM, the GI50 ([7]; Homo sapiens, DU-145, 48 h) was 1.73 µM and the CC50 ([7]; Homo sapiens, DU-145, 48 h, read-out: LC50) was 5.59 µM. The TGI ([8]; HOP-92 (Non-small cell Lung), five-dose, 48 h) was 2.72 µM, the GI50 ([8]; Homo sapiens, HOP-92, 48 h) was 1.24 µM and the CC50 ([8]; Homo sapiens, HOP-92, 48 h, read-out: LC50) was 5.99 µM. The GI50 ([9]; Homo sapiens, T47D) was 1.3 µM, the CC50 ([9]; Homo sapiens, T47D, read-out: LC50) was 8.43 µM and the TGI ([9]; T-47D (Breast Cancer), five-dose) was 3.31 µM. The GI50 ([10]; Homo sapiens, SW-620, 48 h) was 1.24 µM, the CC50 ([10]; Homo sapiens, SW-620, 48 h, read-out: LC50) was 8.29 µM and the TGI ([10]; SW-620 (Colon Cancer), five-dose, 48 h) was 3.20 µM. The GI50 ([11]; Homo sapiens, KM12, 48 h) was 1.53 µM, the CC50 ([11]; Homo sapiens, KM12, 48 h, read-out: LC50) was 6.06 µM and the TGI ([11]; KM12 (Colon Cancer), five-dose, 48 h) was 3.05 µM. It also gave a GI50 ([12]; Homo sapiens, OVCAR-8, 48 h) of 1.69 µM, a CC50 ([12]; Homo sapiens, OVCAR-8, 48 h, read-out: LC50) of 5.98 µM and a TGI ([12]; OVCAR-8 (Ovarian Cancer), five-dose, 48 h) of 3.18 µM. The GI50 ([13]; Homo sapiens, NCI-H226, 48 h) was 1.37 µM, the CC50 ([13]; Homo sapiens, NCI-H226, 48 h, read-out: LC50) was 5.23 µM and the TGI ([13]; NCI-H226 (Non-small cell Lung), five-dose, 48 h) was 2.68 µM. The “growth inhibition in the One-Dose Screen” value [14] was “significant growth inhibition”, the GI50 ([15]; Homo sapiens, NCI-H460, 48 h) was 1.66 µM and the CC50 ([15]; Homo sapiens, NCI-H460, 48 h, read-out: LC50) was > 100 µM. For the same molecule, the TGI ([15]; NCI-H460 (Non-small cell Lung), five-dose, 48 h) was 4.38 µM, the GI50 ([16]; Homo sapiens, OVCAR-5, 48 h) was 1.75 µM and the CC50 ([16]; Homo sapiens, OVCAR-5, 48 h, read-out: LC50) was 6.66 µM. For the same molecule, the TGI ([16]; OVCAR-5 (Ovarian Cancer), five-dose, 48 h) was 3.39 µM, the GI50 ([17]; Homo sapiens, SF-295, 48 h) was 1.6 µM and the CC50 ([17]; Homo sapiens, SF-295, 48 h, read-out: LC50) was 5.48 µM. It also gave a TGI ([17]; SF-295 (CNS Cancer), five-dose, 48 h) of 2.96 µM, a TGI ([18]; EKVX (Non-small cell Lung), five-dose) of 3.34 µM and a GI50 ([18]; Homo sapiens, EKVX) of 1.74 µM. For the same molecule, the CC50 ([18]; Homo sapiens, EKVX, read-out: LC50) was 6.42 µM, the GI50 ([19]; Homo sapiens, OVCAR-4, 48 h) was 1.33 µM and the CC50 ([19]; Homo sapiens, OVCAR-4, 48 h, read-out: LC50) was 5.59 µM. For the same molecule, the TGI ([19]; OVCAR-4 (Ovarian Cancer), five-dose, 48 h) was 2.73 µM, the GI50 [20] was 0.31 µM and the CC50 ([20]; read-out: LC50) was > 100 µM. For the same molecule, the GI50 ([21]; Homo sapiens, NCI-H23, 48 h) was 1.45 µM, the CC50 ([21]; Homo sapiens, NCI-H23, 48 h, read-out: LC50) was 6.25 µM and the TGI ([21]; NCI-H23 (Non-small cell Lung), five-dose, 48 h) was 3.01 µM. The TGI ([22]; HCT-15 (Colon Cancer), five-dose, 48 h) was 2.23 µM, the GI50 ([22]; Homo sapiens, HCT-15, 48 h) was 0.97 µM and the CC50 ([22]; Homo sapiens, HCT-15, 48 h, read-out: LC50) was 5.02 µM. The GI50 ([23]; at least one studied cell line of each of leukemia, colon cancer, CNS cancer, melanoma, ovarian cancer, renal cancer, and breast cancer) was < 1 µM, the GI50 ([23]; every leukemia cell line studied) was < 0.5 µM and the anti-proliferative activity ([23]; nine major cancer cell lines, initial single dose and five dose screening (FIG. 2, FIG. 3)) was “anti-proliferative activity”.

From US11814392B2, “Chromenopyridine-based compounds and methods of making and use thereof” (Rosalind Franklin University of Medicine and Science, priority 2020, dated 2023)
